According to PMC7827406, “Structure–Activity Relationship (SAR) Study of Spautin-1 to Entail the Discovery of Novel NEK4 Inhibitors” (International Journal of Molecular Sciences, 2021):
Read-outs that look alike come from different tables or passages of the source.

Key:
Assay in all cases: biochemical
Set-up in all cases: Eurofins KinaseProfiler full panel at Km ATP, residual kinase activity (%) relative to DMSO
CK2α1(h) = molecular target: T1, CK2α1(h) (Homo sapiens, UniProt P68400)
T1 construct: gene CSNK2A1
In short: (§1)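 Two 10 µM single-concentration screens were run: a competition-binding screen, in which DNA-tagged kinase bound to immobilized ligands was quantified by qPCR, and a radiometric activity panel at Km ATP. Each is expressed as residual kinase activity (%).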

ErbB4(h) = ErbB4(h) (Homo sapiens, UniProt Q15303)
In short: as §1

Haspin(h) = molecular target: T2, Haspin(h) (Homo sapiens, UniProt Q8TF76)
T2 sequence (Q8TF76 1-798): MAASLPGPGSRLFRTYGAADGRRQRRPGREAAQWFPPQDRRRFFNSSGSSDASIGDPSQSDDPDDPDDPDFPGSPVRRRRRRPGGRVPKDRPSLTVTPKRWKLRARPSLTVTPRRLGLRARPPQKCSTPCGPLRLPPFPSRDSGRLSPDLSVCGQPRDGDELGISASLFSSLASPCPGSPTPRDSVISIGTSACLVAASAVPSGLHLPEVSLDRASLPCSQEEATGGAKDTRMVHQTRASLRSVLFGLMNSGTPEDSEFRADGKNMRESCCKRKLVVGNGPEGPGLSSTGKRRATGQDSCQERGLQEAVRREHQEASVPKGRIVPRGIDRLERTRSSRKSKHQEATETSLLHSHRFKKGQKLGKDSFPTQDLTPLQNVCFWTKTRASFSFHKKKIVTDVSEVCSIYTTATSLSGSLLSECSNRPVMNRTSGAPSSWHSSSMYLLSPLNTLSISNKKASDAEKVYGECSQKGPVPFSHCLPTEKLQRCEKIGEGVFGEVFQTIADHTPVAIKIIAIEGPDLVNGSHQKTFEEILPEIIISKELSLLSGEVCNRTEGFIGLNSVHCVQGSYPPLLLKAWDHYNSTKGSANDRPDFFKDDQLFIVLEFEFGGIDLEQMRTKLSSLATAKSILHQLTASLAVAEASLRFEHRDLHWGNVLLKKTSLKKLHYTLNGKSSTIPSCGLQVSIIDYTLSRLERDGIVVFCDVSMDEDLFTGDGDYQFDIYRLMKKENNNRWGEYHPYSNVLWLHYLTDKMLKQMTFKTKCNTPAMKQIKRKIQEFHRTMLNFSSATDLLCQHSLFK
In short: as §1

MAP4K3(h) = molecular target: T3, MAP4K3(h) (Homo sapiens, UniProt Q8IVH8)
T3 sequence (Q8IVH8 1-894): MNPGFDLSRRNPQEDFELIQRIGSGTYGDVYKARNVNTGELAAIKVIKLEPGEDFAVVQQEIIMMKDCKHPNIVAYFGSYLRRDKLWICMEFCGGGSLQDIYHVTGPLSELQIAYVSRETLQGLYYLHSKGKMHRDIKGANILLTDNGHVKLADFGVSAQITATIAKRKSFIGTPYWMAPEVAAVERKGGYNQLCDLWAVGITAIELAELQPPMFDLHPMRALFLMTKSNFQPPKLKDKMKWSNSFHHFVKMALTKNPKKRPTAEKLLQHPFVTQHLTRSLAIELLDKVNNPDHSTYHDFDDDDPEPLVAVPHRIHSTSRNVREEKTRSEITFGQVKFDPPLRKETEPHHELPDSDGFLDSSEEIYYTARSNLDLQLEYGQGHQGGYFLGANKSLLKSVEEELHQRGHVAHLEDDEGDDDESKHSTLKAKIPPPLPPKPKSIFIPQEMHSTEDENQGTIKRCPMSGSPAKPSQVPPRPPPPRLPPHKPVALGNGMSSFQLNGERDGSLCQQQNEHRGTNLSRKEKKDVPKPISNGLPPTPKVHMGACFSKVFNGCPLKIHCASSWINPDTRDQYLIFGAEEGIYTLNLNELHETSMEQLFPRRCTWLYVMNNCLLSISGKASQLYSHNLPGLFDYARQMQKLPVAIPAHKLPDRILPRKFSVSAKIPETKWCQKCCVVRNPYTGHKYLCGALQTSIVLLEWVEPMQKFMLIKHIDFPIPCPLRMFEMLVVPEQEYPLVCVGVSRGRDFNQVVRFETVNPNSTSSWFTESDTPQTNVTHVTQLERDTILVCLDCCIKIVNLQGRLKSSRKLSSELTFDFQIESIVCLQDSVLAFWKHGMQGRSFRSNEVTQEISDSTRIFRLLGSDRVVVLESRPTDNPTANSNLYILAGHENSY
In short: as §1

[1] = molecular target: T4, PI3 Kinase (p110a(E542K)/p85a)(m) (Mus musculus, UniProt P42337, E542K)
T4 construct: gene Pik3ca
In short: as §1

PIP5K1a(h) = PIP5K1a(h) (Homo sapiens, UniProt Q99755)
In short: as §1

PTK5(h) = molecular target: T5, PTK5(h) (Homo sapiens, UniProt P42685)
T5 construct: gene FRK
In short: as §1

SRMS(h) = SRMS(h) (Homo sapiens, UniProt Q9H3Y6)
In short: as §1

[2] = read-out: Residual activity (%) Spautin-1 5aa
[3] = read-out: Residual activity (%) 5as
[4] = read-out: Residual activity (%) 5at
[5] = read-out: Residual activity (%) 5ay

T5 sequence (P42685 whole entry): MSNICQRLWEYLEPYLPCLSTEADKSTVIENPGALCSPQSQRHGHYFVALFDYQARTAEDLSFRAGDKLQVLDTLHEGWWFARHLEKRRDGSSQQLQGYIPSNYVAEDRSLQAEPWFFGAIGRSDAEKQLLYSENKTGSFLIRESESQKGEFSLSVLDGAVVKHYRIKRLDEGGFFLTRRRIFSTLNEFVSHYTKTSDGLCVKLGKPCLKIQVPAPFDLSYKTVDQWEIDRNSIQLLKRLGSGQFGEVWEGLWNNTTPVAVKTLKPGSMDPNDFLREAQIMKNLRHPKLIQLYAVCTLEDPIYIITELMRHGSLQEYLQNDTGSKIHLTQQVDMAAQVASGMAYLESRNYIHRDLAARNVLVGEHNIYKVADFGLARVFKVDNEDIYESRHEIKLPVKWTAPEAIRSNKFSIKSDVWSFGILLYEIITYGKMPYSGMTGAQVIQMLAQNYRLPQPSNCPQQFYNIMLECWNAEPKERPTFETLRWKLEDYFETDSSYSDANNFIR
ErbB4(h), sequence (Q15303 whole entry): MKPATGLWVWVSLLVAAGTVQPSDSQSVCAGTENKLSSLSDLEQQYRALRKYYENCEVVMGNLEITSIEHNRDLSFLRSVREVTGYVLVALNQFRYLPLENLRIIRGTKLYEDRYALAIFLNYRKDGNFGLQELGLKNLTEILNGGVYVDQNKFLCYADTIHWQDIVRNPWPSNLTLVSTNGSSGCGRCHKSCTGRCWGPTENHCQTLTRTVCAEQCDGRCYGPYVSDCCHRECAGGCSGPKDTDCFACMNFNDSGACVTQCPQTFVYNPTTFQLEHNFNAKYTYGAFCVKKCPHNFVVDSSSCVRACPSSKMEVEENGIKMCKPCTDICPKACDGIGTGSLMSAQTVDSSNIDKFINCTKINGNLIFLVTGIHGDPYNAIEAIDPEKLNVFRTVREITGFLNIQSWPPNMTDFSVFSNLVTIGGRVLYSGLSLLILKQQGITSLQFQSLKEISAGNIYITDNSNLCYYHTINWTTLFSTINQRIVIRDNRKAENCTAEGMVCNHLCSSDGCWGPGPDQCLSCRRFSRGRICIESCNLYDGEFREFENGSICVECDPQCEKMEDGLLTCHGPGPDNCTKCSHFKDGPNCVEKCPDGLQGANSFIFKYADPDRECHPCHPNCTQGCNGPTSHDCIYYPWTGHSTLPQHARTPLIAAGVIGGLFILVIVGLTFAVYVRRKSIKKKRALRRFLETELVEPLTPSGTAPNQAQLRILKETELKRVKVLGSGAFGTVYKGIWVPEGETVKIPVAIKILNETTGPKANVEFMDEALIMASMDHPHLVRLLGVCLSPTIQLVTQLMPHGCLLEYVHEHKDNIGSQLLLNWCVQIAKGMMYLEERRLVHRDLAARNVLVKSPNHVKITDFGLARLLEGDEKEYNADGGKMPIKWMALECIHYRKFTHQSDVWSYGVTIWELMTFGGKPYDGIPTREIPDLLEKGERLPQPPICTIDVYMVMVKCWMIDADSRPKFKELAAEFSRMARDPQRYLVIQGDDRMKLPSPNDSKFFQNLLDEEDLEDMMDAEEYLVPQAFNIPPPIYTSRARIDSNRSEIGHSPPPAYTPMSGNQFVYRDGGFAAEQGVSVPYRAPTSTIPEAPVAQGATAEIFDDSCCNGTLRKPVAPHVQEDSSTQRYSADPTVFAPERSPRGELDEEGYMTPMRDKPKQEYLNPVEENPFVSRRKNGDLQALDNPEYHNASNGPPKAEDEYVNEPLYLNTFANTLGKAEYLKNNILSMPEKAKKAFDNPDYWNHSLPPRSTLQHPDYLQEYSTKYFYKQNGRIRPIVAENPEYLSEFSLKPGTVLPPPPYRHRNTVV
PIP5K1a(h), sequence (Q99755 whole entry): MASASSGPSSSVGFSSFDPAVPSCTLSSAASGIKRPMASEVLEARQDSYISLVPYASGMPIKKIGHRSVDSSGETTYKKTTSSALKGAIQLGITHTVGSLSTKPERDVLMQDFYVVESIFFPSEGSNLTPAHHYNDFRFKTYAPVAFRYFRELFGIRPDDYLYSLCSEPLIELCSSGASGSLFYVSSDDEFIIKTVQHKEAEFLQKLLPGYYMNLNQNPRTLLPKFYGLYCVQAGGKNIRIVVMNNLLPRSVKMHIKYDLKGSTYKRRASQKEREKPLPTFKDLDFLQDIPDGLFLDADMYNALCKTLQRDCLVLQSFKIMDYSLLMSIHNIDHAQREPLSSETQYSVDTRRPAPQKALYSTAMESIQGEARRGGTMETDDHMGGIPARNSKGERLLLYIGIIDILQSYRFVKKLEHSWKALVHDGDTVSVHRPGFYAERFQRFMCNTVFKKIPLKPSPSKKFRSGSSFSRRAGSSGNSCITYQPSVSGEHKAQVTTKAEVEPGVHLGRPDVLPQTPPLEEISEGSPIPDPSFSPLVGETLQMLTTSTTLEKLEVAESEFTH
T1 sequence (P68400 whole entry): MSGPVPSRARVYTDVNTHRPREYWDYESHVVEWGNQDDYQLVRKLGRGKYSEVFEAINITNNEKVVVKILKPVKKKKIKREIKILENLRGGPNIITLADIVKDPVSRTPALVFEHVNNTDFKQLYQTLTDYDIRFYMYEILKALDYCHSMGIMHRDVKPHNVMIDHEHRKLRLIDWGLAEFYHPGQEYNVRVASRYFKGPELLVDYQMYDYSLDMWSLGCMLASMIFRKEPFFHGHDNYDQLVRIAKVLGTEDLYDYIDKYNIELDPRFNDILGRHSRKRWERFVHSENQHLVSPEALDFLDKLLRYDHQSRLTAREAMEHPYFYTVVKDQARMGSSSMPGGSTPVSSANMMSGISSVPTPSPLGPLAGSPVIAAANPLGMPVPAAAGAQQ
T4 sequence (P42337 whole entry E542K): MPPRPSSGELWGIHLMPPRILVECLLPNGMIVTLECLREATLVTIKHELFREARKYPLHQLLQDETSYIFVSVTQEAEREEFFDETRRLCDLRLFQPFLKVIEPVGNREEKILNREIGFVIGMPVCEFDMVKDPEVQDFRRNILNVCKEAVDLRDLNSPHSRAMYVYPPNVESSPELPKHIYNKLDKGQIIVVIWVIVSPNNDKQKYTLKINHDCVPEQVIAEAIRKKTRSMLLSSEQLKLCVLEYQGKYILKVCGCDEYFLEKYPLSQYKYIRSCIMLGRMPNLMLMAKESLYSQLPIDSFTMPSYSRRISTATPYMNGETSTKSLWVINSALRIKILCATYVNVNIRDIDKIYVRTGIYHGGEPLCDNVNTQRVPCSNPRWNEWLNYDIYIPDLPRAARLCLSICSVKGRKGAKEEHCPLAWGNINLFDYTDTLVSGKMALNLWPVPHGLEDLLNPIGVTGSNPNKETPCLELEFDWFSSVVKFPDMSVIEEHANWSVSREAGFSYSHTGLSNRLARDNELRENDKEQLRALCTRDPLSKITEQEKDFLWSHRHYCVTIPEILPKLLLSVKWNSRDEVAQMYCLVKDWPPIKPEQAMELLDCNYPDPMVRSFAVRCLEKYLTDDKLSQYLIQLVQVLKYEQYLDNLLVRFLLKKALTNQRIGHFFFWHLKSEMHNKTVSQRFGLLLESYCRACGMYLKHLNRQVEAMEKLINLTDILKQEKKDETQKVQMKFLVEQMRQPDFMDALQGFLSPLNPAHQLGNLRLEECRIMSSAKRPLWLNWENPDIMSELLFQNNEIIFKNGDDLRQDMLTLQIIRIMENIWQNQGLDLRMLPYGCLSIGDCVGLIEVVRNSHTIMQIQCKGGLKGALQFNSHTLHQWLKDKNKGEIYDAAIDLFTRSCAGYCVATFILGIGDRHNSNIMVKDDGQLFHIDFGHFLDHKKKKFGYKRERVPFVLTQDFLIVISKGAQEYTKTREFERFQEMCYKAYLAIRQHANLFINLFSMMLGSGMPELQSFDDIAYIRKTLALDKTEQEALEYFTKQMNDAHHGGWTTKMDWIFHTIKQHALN
T4 sequence (P26450 whole entry partner): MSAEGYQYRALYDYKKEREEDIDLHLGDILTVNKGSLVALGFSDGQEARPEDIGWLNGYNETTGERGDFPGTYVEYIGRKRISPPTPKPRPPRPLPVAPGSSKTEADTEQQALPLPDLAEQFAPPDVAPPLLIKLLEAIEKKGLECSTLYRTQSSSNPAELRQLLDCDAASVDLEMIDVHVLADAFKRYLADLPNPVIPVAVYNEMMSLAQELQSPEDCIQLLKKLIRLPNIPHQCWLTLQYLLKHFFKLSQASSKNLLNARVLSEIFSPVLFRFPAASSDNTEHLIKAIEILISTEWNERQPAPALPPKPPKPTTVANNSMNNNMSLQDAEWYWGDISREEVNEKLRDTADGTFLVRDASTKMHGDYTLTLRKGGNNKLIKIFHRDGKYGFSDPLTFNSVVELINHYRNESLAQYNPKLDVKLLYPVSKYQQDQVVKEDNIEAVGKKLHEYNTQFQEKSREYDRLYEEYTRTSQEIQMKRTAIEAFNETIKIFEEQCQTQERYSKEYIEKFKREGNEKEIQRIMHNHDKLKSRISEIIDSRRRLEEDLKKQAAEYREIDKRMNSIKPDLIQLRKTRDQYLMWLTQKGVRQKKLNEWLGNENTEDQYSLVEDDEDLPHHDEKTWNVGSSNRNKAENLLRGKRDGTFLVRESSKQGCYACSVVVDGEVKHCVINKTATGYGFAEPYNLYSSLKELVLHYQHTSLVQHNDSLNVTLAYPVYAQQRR
SRMS(h), sequence (Q9H3Y6 whole entry): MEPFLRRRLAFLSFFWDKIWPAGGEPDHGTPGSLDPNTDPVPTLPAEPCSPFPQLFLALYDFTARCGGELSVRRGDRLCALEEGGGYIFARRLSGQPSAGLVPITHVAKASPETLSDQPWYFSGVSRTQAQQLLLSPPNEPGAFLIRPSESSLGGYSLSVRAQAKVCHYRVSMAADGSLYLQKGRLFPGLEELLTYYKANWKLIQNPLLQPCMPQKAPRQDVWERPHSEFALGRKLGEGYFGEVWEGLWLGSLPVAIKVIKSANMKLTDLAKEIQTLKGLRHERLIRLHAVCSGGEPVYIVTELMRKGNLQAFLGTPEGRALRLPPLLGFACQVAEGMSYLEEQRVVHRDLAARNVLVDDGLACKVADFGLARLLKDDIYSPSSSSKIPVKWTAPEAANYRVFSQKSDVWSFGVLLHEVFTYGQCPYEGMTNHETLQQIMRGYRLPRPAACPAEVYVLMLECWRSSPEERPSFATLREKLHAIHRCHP

For `Fc1ccc(CNc2ncnc3ccc(F)cc23)cc1` [5aa, 6-Fluoro-N-(4-fluorobenzyl)-4-Quinazolinamine], the remaining activity at 10 µM (CK2α1(h); [2]) was 105%, the remaining activity at 10 µM (ErbB4(h); [2]) was 90% and the remaining activity at 10 µM (Haspin(h); [2]) was 71%. For the same molecule, the remaining activity at 10 µM (MAP4K3(h); [2]) was 99%, the remaining activity at 10 µM [1, 2] was 96% and the remaining activity at 10 µM (PIP5K1a(h); [2]) was 104%. It also gave a remaining activity at 10 µM (PTK5(h); [2]) of 85% and a remaining activity at 10 µM (SRMS(h); [2]) of 86%.

`Fc1ccc(CCNc2ncnc3ccc(F)cc23)cc1` [5as, 6-Fluoro-N-[2-(4-Fluorophenyl)Ethyl]-4-Quinazolinamine] showed a remaining activity at 10 µM (CK2α1(h); [3]) of 84%, a remaining activity at 10 µM (ErbB4(h); [3]) of 84% and a remaining activity at 10 µM (Haspin(h); [3]) of 72%. For the same molecule, the remaining activity at 10 µM (MAP4K3(h); [3]) was 87%, the remaining activity at 10 µM [1, 3] was 91% and the remaining activity at 10 µM (PIP5K1a(h); [3]) was 103%. For the same molecule, the remaining activity at 10 µM (PTK5(h); [3]) was 84% and the remaining activity at 10 µM (SRMS(h); [3]) was 84%.

With `Fc1ccc2ncnc(NCCc3ccc(Cl)cc3)c2c1` [5at, N-[2-(4-Chlorophenyl)Ethyl]-6-Fluoro-4-Quinazolinamine] the remaining activity at 10 µM (CK2α1(h); [4]) was 78%, the remaining activity at 10 µM (ErbB4(h); [4]) was 79% and the remaining activity at 10 µM (Haspin(h); [4]) was 78%. The remaining activity at 10 µM (MAP4K3(h); [4]) was 93%, the remaining activity at 10 µM [1, 4] was 94% and the remaining activity at 10 µM (PIP5K1a(h); [4]) was 104%. The remaining activity at 10 µM (PTK5(h); [4]) was 95% and the remaining activity at 10 µM (SRMS(h); [4]) was 71%.

For `COc1ccc2ncnc(Nc3cccc(F)c3)c2c1` [5ay, N-(3-Fluorophenyl)-6-Methoxy-4-Quinazolinamine], the remaining activity at 10 µM (ErbB4(h); [5]) was 74%, the remaining activity at 10 µM (Haspin(h); [5]) was 36% and the remaining activity at 10 µM (MAP4K3(h); [5]) was 87%. For the same molecule, the remaining activity at 10 µM [1, 5] was 93%, the remaining activity at 10 µM (PIP5K1a(h); [5]) was 101% and the remaining activity at 10 µM (PTK5(h); [5]) was 64%. The remaining activity at 10 µM (SRMS(h); [5]) was 78%.
